Results published in US11945807B2, “Splicing modulator antibody-drug conjugates and methods of use” (EISAI R&D MANAGEMENT CO., LTD., priority 2018, dated 2024).
Where two headings read alike, the source gives them in different places.

What was measured:
[1] = system: THP1.1; experiment: Payload cell potency and lethality CTGlo 72 h, THP1.1; assay type: cell-based; details: unconjugated payload; for GI50: payload cell potency and lethality
[2] = Caco-2 permeability of ADC payload; assay type: in vitro ADME; details: human; for Papp B→A at 2 h, 10 NM: basolateral to apical, read-out: Permeability Mean Caco-2 B-A Perm (10e−G cm/s)
Experimental: Integrity of cell monolayer was confirmed by TEER (transepithelial electrical resistance) and Lucifer yellow. Payloads were spiked in duplicate at 10 NM, separately, on both sides of the cell monolayer. Permeability rates from the apical to basolateral (A-B) direction and the basolateral to apical (B-A) direction were determined by sampling aliquots from both chambers immediately after treatment (t=0) and following incubation for 2 hours. Samples were protein precipitated with organic solvent containing internal standard and analyzed by LC-MS/MS (SCIEX; API 5500). The area ratio responses of payload/internal standard over time in both directions were used to generate permeability (cm/sec) values.

[3] = Chemical stability of ADC payload, pH 5.5 buffer; assay type: physicochemical; details: for half-life at 20 μM: McIlvaine (citrate-phosphate) buffer, unconjugated payload, Citrate-Phosphate buffer pH 5.5, 37° C., read-out: Stability Mean Stability t1/2 pH5.5 (converted); for pH 5.5 Stability (t1/2, 37 C.): pH 5.5, 37 C., corresponding payload
Source text: (Eppendorf ThermoMixer). […] Time 0 was set to 100.

[4] = system: MOLP8 cells; experiment: Cell viability CellTiter-Glo, MOLP8 (CD138-expressing); assay type: cell-based
Experimental: (§1) HCC1954 (American Type Culture Collection (ATCC)) breast ductal carcinoma cells were plated at 2000 cells/well in flat bottom 96-well tissue culture plates (Corning) in a total volume of 90 μL tissue culture medium supplemented with 10% fetal bovine serum (ThermoFisher Scientific). Cells were treated with a 3-fold serial dilution of compound from 200 nM to 0.03 nM. Each concentration was tested in triplicate. At the time of treatment, a plate of untreated cells was evaluated using CellTiter-Glo®2.0 Luminescent Cell Viability Assay according to the manufacturers recommendations (Promega; #G9241). CellTiter-Glo® 2.0 reagent was added to the medium, incubated, and assayed on an EnVision Multilabel Reader (PerkinElmer). Values represent time zero (T0). […] Percentage growth inhibition was calculated as: [(T144−T0)/(C−T0)]×100 for concentrations for which T144>/=T0 or [(T144−T0)/T0]×100 for concentrations for which T144<T0. The dose response curve plots were generated using Prism 7 (Graphpad) and fit using nonlinear regression analysis and the log(inhibitor) versus response-variable slope (four parameters).
(§2) Anti-CD138 ADCs were tested in the CD138-expressing MOLP8 multiple myeloma cell line. Similarly, anti-EPHA2 ADCs were tested in the EPHA2-expressing PC3 prostate cancer cell line.

[5] = system: PC3 cells; experiment: Cell viability CellTiter-Glo, PC3 (EPHA2-expressing); assay type: cell-based; details: for GI50: Homo sapiens, PC-3, free payload of the ADC
Experimental: as §1, §2

[6] = system: N87 cells; experiment: Cell viability CellTiter-Glo, N87; assay type: cell-based, human; details: unconjugated payload of the ADC; for GI50: Homo sapiens
Experimental: as §1
(§3) HCC1954 (ATCC), 2000 cells/well), N87 (ATCC, 4000 cells/well), SKBR3 (ATCC, 3000 cells/well), and MCF7 (ATCC, 1500 cells/well) cell lines were used.

[7] = system: MCF7 cells; experiment: Cell viability CellTiter-Glo, MCF7 (HER2-negative); assay type: cell-based; details: Homo sapiens, unconjugated payload of the ADC
Experimental: as §1, §3

[8] = system: HCC1954 cells; experiment: Cell viability CellTiter-Glo, HCC1954; details: Homo sapiens, HCC1954, read-out: Payload GI50 (nM)
[9] = Caco-2, unconjugated payload, apical to basolateral, 2 hours, read-out: Permeability Mean Caco-2 A-B Perm (10e−6 cm/s)
[10] = Caco-2, unconjugated payload, 2 hours
[11] = Caco-2, A-B, corresponding payload (Table 26), read-out: Permeability Caco-2 A-B (10e−6 cm/s)
[12] = unconjugated payload of the ADC
[13] = anti-CD138 ADC, read-out: SMLA GI50

CC[C@H](O)[C@@H](C)[C@H]1O[C@@H]1C[C@H](C)/C=C/C=C(\C)[C@H]1OC(=O)C[C@H](O)CC[C@@](C)(OC(=O)N2CCNCC2)[C@@H](OC(C)=O)/C=C/[C@@H]1C [D13]
CTGlo-AT S Mean Min-Response % 72 h THP1.1 [1]: −99.941% | GI50 [1]: 0.892 nM | Papp A→B at 2 h, 10 NM [2, 9]: 0.9 ×10⁻⁶ cm/s | Papp B→A at 2 h, 10 NM [2, 10]: 17.2 ×10⁻⁶ cm/s | half-life at 20 μM [3]: < 24 h

CC[C@H](O)[C@@H](C)[C@H]1O[C@@H]1C[C@@](C)(O)/C=C/C=C(\C)[C@H]1OC(=O)C[C@H](O)CC[C@@](C)(OC)[C@@H](OC(=O)N2CCNC(CCC(=O)O)C2)/C=C/[C@@H]1C (stereo partly drawn) [D22, N-ethyl-N-isopropylpropan-3-(4-((((2S,3S,6S,7R,10R,E)-10-hydroxy-2-((R,2E,4E)-6-hydroxy-7-((2R,3R)-3-((2R,3S)-3-hydroxypentan-2-yl)oxiran-2-yl)-6-methylhepta-2,4-dien-2-yl)-7-methoxy-3,7-dimethyl-12-oxooxacyclododec-4-en-6-yl)oxy)carbonyl)piperazin-2-yl)propanoic acid]
CTGlo-AT S Mean Min-Response % 72 h THP1.1 [1]: −78.119% | Papp A→B at 2 h, 10 NM [2, 9]: 0.14 ×10⁻⁶ cm/s | Papp B→A at 2 h, 10 NM [2, 10]: 0.16 ×10⁻⁶ cm/s

CC[C@H](O)[C@@H](C)[C@H]1O[C@@H]1C[C@H](C)/C=C/C=C(\C)[C@H]1OC(=O)C[C@H](O)CC[C@@](C)(OC)[C@@H](OC(=O)N2CCN(C)CC2)/C=C/[C@@H]1C [D19, (2S,3S,6S,7R,10R,E)-10-hydroxy-2-((S,2E,4E)-7-((2R,3R)-3-((2R,3S)-3-hydroxypentan-2-yl)oxiran-2-yl)-6-methylhepta-2,4-dien-2-yl)-7-methoxy-3,7-dimethyl-12-oxooxacyclododec-4-en-6-yl 4-methylpiperazine-1-carboxylate]
Papp A→B at 2 h, 10 NM [2, 11]: 16 ×10⁻⁶ cm/s | pH 5.5 Stability (t1/2, 37 C.) [3]: 0.8 | GI50 ([4]; Homo sapiens, MOLP-8, unconjugated payload of the ADC in the row, read-out: Payload GI50): 0.84 nM | GI50 [5]: 1.41 nM | Payload LD50 ([5]; free payload of the ADC): >400 nM | Payload Rmin (%) ([5]; free payload of the ADC): −29.33%

CC(=O)N1CCC(n2nnc3c(F)cc(/C=C(\C)[C@H]4OC(=O)C[C@H](O)CC[C@H](C)[C@@H](OC(=O)N5CCNCC5)/C=C/[C@@H]4C)cc32)CC1 [D14]
GI50 [6]: 2.92 nM | Payload Rmin (%) [6]: −52.662% | GI50 [7]: 5.29 nM | CTGlo-AT S Mean Min-Response % 72 h THP1.1 [1]: −99.209% | GI50 [1]: 3.584 nM | Papp A→B at 2 h, 10 NM [2, 9]: 0.06 ×10⁻⁶ cm/s | Papp B→A at 2 h, 10 NM [2, 10]: 12.1 ×10⁻⁶ cm/s | half-life at 20 μM [3]: > 168 h | GI50 ([4]; Homo sapiens, MOLP-8, unconjugated payload of the ADC, read-out: Payload GI50): 1.9 nM | Payload LD50 [4, 12]: 8.5 nM | Payload Rmin (%) [4, 12]: −61% | GI50 [5]: 3.88 nM | Payload Rmin (%) ([5]; free payload of the ADC): −79.835%

CC[C@H](O)[C@@H](C)[C@H]1O[C@@H]1C[C@@](C)(O)/C=C/C=C(\C)[C@H]1OC(=O)C[C@H](O)CC[C@@](C)(O)[C@@H](OC(=O)N2CCN(C3CCCCCC3)CC2)/C=C/[C@@H]1C [D11, E7107]
CTGlo-AT S Mean Min-Response % 72 h THP1.1 [1]: −100.481% | Papp A→B at 2 h, 10 NM [2, 9]: 0.87 ×10⁻⁶ cm/s | Papp B→A at 2 h, 10 NM [2, 10]: 10.6 ×10⁻⁶ cm/s | half-life at 20 μM [3]: 90 h

C/C(=C\c1cc(F)cc(N2CCN(C(=O)Cn3cccn3)CC2)c1)[C@H]1OC(=O)C[C@H](O)CC[C@H](C)[C@@H](OC(=O)N2CCNCC2)/C=C/[C@@H]1C [D16]
CTGlo-AT S Mean Min-Response % 72 h THP1.1 [1]: −99.681% | GI50 [1]: 2.975 nM | Papp A→B at 2 h, 10 NM [2, 11]: 0.72 ×10⁻⁶ cm/s | Papp A→B at 2 h, 10 NM [2, 9]: 0.72 ×10⁻⁶ cm/s | Papp B→A at 2 h, 10 NM [2, 10]: 23.3 ×10⁻⁶ cm/s | half-life at 20 μM [3]: > 168 h | pH 5.5 Stability (t1/2, 37 C.) [3]: 7

CC[C@H](O)[C@@H](C)[C@H]1O[C@@H]1C[C@H](C)/C=C/C=C(\C)[C@H]1OC(=O)C[C@H](O)CC[C@@](C)(OC)[C@@H](OC(=O)N2CCNCC2)/C=C/[C@@H]1C [D18, (2S,3S,6S,7R,10R,E)-10-hydroxy-2-((S,2E,4E)-7-((2R,3R)-3-((2R,3S)-3-hydroxypentan-2-yl)oxiran-2-yl)-6-methylhepta-2,4-dien-2-yl)-7-methoxy-3,7-dimethyl-12-oxooxacyclododec-4-en-6-yl piperazine-1-carboxylate]
GI50 [6]: 0.275 nM | Payload Rmin (%) [6]: −92.127% | GI50 [7]: 0.883 nM | CTGlo-AT S Mean Min-Response % 72 h THP1.1 [1]: −99.621% | GI50 [1]: 0.863 nM | Papp A→B at 2 h, 10 NM [2, 9]: 1.19 ×10⁻⁶ cm/s | Papp B→A at 2 h, 10 NM [2, 10]: 27.4 ×10⁻⁶ cm/s | GI50 [8]: 0.208 nM

C/C(=C\c1cccc(S(=O)(=O)N2CCCC2)c1)[C@H]1OC(=O)C[C@H](O)CC[C@H](C)[C@@H](OC(=O)N2CCN(C)CC2)/C=C/[C@@H]1C [D34]
Papp A→B at 2 h, 10 NM [2, 11]: 26 ×10⁻⁶ cm/s | pH 5.5 Stability (t1/2, 37 C.) [3]: 7

C/C(=C\c1cc(F)cc(N2CCN(CC(=O)O)CC2)c1)[C@H]1OC(=O)C[C@H](O)CC[C@H](C)[C@@H](OC(=O)N2CCNCC2)/C=C/[C@@H]1C [D33, 2-(4-(3-fluoro-5-((E)-2-((2S,3S,6R,7S,10R,E)-10-hydroxy-3,7-dimethyl-12-oxo-6-((piperazine-1-carbonyl)oxy)oxacyclododec-4-en-2-yl)prop-1-en-1-yl)phenyl)piperazin-1-yl)acetic acid]
CTGlo-AT S Mean Min-Response % 72 h THP1.1 [1]: −53.128% | GI50 [1]: 195.752 nM | Papp A→B at 2 h, 10 NM [2, 9]: 0.13 ×10⁻⁶ cm/s | Papp B→A at 2 h, 10 NM [2, 10]: 0.53 ×10⁻⁶ cm/s

CC[C@H](O)[C@@H](C)[C@H]1O[C@@H]1C[C@@](C)(O)/C=C/C=C(\C)[C@H]1OC(=O)C[C@H](O)CC[C@@](C)(OC)[C@@H](OC(=O)N(C)CCNC)/C=C/[C@@H]1C [D20, (2S,3S,6S,7R,10R,E)-10-hydroxy-2-((R,2E,4E)-6-hydroxy-7-((2R,3R)-3-((2R,3S)-3-hydroxypentan-2-yl)oxiran-2-yl)-6-methylhepta-2,4-dien-2-yl)-7-methoxy-3,7-dimethyl-12-oxooxacyclododec-4-en-6-yl methyl(2-(methylamino)ethyl)carbamate]
CTGlo-AT S Mean Min-Response % 72 h THP1.1 [1]: −100.664% | GI50 [1]: 28.336 nM | Papp A→B at 2 h, 10 NM [2, 9]: 0.16 ×10⁻⁶ cm/s | Papp B→A at 2 h, 10 NM [2, 10]: 0.38 ×10⁻⁶ cm/s | half-life at 20 μM [3]: > 168 h

C/C(=C\c1cc(F)cc(N2CCN(C(=O)Cn3cccn3)CC2)c1)[C@H]1OC(=O)C[C@H](O)CC[C@H](C)[C@@H](OC(=O)N2CCN(C)CC2)/C=C/[C@@H]1C [D26]
CTGlo-AT S Mean Min-Response % 72 h THP1.1 [1]: −99.401% | Papp A→B at 2 h, 10 NM [2, 9]: 16 ×10⁻⁶ cm/s | Papp B→A at 2 h, 10 NM [2, 10]: 41.1 ×10⁻⁶ cm/s | half-life at 20 μM [3]: > 168 h

B1: AB205-ADL12-D2 (conjugate)
heavy: QVQLQQSGSELMMPGASVKISCKATGYTFSNYWIQRPGHGLEWIGEILPGTGRTIYNEKFKGKATFTADISSNTVQMQLSSLTSEDSAVYYCARRDYYGNFYYAMDYWGQGTSVTVSSAKTTPPSVYPLAPGSAAQTNSMVTLGCLVKGYFPEPVTVTWNSGSLSSGVHTFPAVLQSDLYTLSSSVTVPSSTWPSETVTCNVAHPASSTKVDKKIVPRDCGCKPCICTVPEVSSVFIFPPKPKDVLTITLTPKVTCVVVDISKDDPEVQFSWFVDDVEVHTAQTQPREEQFNSTFRSVSELPIMHQDWLNGKEFKCRVNSAAFPAPIEKTISKTKGRPKAPQVYTIPPPKEQMAKDKVSLTCMITDFFPEDITVEWQWNGQPAENYKNTQPIMDTDGSYFVYSKLNVQKSNWEAGNTFTCSVLHEGLHNHHTEKSLSHSPG
light: DIQMTQSTSSLSASLGDRVTISCSASQGINNYLNWYQQKPDGTVELLIYYTSTLQSGVPSRFSGSGSGTDYSLTISNLEPEDIGTYYCQQYSKLPRTFGGGTKLEIKRADAAPTVSIFPPSSEQLTSGGASVVCFLNNFYPKDINVKWKIDGSERQNGVLNSWTDQDSKDSTYSMSSTLTLTKDEYERHNSYTCEATHKTSTSPIVKSFNRNEC
SMLA LD50 ([4]; anti-CD138 ADC): >400 nM | SMLA Rmin (%) ([4]; anti-CD138 ADC): −53.125% | GI50 [4, 13]: < 0.061 nM

B2: AB205-ADL5-D19 (conjugate)
heavy: B1 heavy
light: B1 light
SMLA LD50 ([4]; anti-CD138 ADC): >400 nM | SMLA Rmin (%) ([4]; anti-CD138 ADC): −46.23% | GI50 [4, 13]: < 0.061 nM

B3: AB205-ADL1-D14 (conjugate)
heavy: B1 heavy
light: B1 light
SMLA LD50 ([4]; anti-CD138 ADC): >400 nM | SMLA Rmin (%) ([4]; anti-CD138 ADC): −74.008% | GI50 [4, 13]: < 0.061 nM

B4: AB205-ADL1-D1 (conjugate)
heavy: B1 heavy
light: B1 light
SMLA LD50 ([4]; anti-CD138 ADC): 0.656 nM | SMLA Rmin (%) ([4]; anti-CD138 ADC): −100.099% | GI50 [4, 13]: < 0.061 nM

B5: AB205-ADL5-D15 (conjugate)
heavy: B1 heavy
light: B1 light
SMLA LD50 ([4]; anti-CD138 ADC): >400 nM | SMLA Rmin (%) ([4]; anti-CD138 ADC): 2.419% | GI50 [4, 13]: 0.258 nM

B6: AB205-ADL1-D4 (conjugate)
heavy: B1 heavy
light: B1 light
SMLA LD50 ([4]; anti-CD138 ADC): 0.535 nM | SMLA Rmin (%) ([4]; anti-CD138 ADC): −99.306% | GI50 [4, 13]: < 0.061 nM

B7: AB205-ADL5-D25 (conjugate)
heavy: B1 heavy
light: B1 light
SMLA LD50 ([4]; anti-CD138 ADC): 11.669 nM | SMLA Rmin (%) ([4]; anti-CD138 ADC): −76.736% | GI50 [4, 13]: < 0.061 nM

B8: AB205-ADL10-D1 (conjugate)
heavy: B1 heavy
light: B1 light
SMLA LD50 ([4]; anti-CD138 ADC): >400 nM | SMLA Rmin (%) ([4]; anti-CD138 ADC): −25.099%
